Results taken from patent US20090118310A1, “Activated Cdc42-associated kinase (ACK) as a therapeutic target for Ras-induced cancer” (UNIVERSITY OF MEDICINE AND DENTISTRY OF NEW JERSEY, priority 2005, published 2009).
d = 2'-deoxy (DNA); r = 2'-OH (RNA)

Columns and labels:
[1] = target: T1, ACK-1 kinase (GST-ACKD, amino acids 101-441) (Homo sapiens, UniProt Q07912); assay: In vitro kinase assay of GST-ACKD with MBP as substrate; type: biochemical; conditions: FIG. 4C dose response, FIG. 4D inhibitors at 200 nmol/L
T1 construct: made in house; host or cells: Escherichia coli BL21 (pGEX-2TH vector)
T1 sequence (Q07912 38-378 H250G): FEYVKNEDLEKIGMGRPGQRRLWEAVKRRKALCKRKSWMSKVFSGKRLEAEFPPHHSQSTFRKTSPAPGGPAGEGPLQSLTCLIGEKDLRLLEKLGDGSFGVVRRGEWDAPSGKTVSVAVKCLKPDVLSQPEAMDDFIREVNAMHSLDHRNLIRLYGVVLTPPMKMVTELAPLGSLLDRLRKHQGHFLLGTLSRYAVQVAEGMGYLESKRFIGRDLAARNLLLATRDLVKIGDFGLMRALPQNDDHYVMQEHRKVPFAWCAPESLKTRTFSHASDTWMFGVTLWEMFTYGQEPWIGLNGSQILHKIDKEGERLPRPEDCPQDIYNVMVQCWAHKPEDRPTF
Description: Escherichia coli BL21 cells transformed with pGEX-ACKD were grown at 30° C. to early logarithmic phase and protein expression was induced by adding 0.1 mmol/L isopropyl-L-thio-β-D-galactopyranoside. After 3 hours of incubation, cells were harvested, resuspended in lysis buffer [50 mmol/L Tris (pH 7.5), 0.73 mol/L sucrose, 5 mmol/L MgCl2, 0.5% (v/v) NP40], and disrupted by sonication. Cells were centrifuged at 10,000×g for 30 minutes at 4° C. The supernatant was applied to the glutathione-Sepharose column equilibrated with WED buffer [20 mmol/L Tris (pH 7.5), 2 mmol/L MgCl2, 1 mmol/L DTT] followed by washing with WED buffer. GST-ACKD was eluted with 5 mmol/L glutathione solution in 50 mmol/L Tris (pH 9.6). The eluate was dialyzed in WED buffer overnight and concentrated on a sucrose gradient. The expected size of the fusion protein (GST-ACKD) was confirmed by SDS-PAGE (data not shown), and the protein was used for kinase assays as described below.
The purified GST-ACKD (˜5 μg per reaction) was incubated in kinase reaction buffer [50 mmol/L HEPES-KOH (pH 7.2), 10 mmol/L magnesium acetate, 5 mmol/L DTT] containing 7.5 μg MBP, 100 μmol/L ATP, and 4 μCi [γ-^33P]ATP for 10 minutes at 30° C. Reactions were stopped by addition of 5× Laemmli SDS sample buffer. Proteins were separated by SDS-PAGE, and radioactivity incorporated into the substrate was quantified by using the Kodak Imaging Station 2000R. For kinase inhibition experiments, GST-ACKD was preincubated with individual inhibitors in kinase buffer or kinase buffer alone (control) before the addition of MBP following the same protocol as described above. Experiments were done in triplicate.
Several compounds were screened to examine their potency in inhibiting the kinase activity of ACK in vitro. […]
Different kinase inhibitors were added to the ACK-1 kinase reaction as described above in General Procedures. Phosphorylation of MBP was determined by SDS-PAGE and autoradiography. The level of MBP phosphorylation was determined by scanning MBP bands using Kodak Imaging Station 2000R and plotted as arbitrary units. […]

[2] = system: v-Ha-Ras-transformed NIH 3T3 cells; assay: Induction of apoptosis in v-Ha-Ras-transformed cells (PARP and ICAD cleavage, cytochrome c release, DNA fragmentation); type: cell-based; conditions: PARP cleavage, ICAD cleavage, chromosomal DNA fragmentation, FIGS. 3A-D
Description: (§1) v-Ras-transformed cells (1×10^5) were seeded in a 35 mm dish and incubated under standard cell culture conditions overnight. Cells in DMEM were treated with Cellfectin, the sense strand of the siRNA:Cellfectin complex or the siRNA:Cellfectin complex for 3 hours. The medium was then replaced with DMEM containing 10% FCS and incubated for 21 hours at 37° C. Cells were harvested and used for Western blotting with specific antibodies or for cell cycle or caspase activation assays. For cell cycle and caspase activation assays, cells were resuspended in PBS containing FITC-VAD-fmk for 10 minutes at room temperature. The cells were then fixed with ice-cold 70% ethanol for 30 minutes at 4° C. Following a rinse with PBS, the cells were resuspended in PBS containing RNase (0.1 mg/mL) and then stained with propidium iodine (10 μg/mL) for 10 minutes at room temperature. Cellular fluorescence from a sample of 15,000 cells was analyzed using a Coulter EPICS Profile II Flow Cytometer (Coulter Electronics, Miami, Fla.). Fluorescence excited at 488 nm was detected using a 525±20 band pass filter. Histograms were analyzed using EPICS Workstation Software (version 4).
v-Ras-transformed cells (5×10^5) were seeded in 35 mm dishes and incubated overnight under standard cell culture conditions. […]

[3] = system: ACK-1; assay: ACK-1 protein level after siRNA transfection (Western blot); type: cell-based
Description: (§2) A pair of cRNA primers of 21 nucleotides (Dharmacon Research, Inc., Lafayette, Co.) corresponding to the 5′ noncoding of the ACK-1 cDNA (5′-CAUUACCCGCCUAUCUCAUdTdT-3′ and 5′-AUGAGAUAGGCGGGUAAUGdTdT-3′) were annealed to form siRNA (a 19-nucleotide duplex stem with two-nucleotide overhangs on either side) according to the instructions provided by the manufacturer. v-Ha-Ras-transformed or parental NIH 3T3 cells were seeded into 6- or 24-well plates and incubated overnight. The annealed double-stranded ACK siRNA (0.16, 0.4, or 0.8 nmol/L in DMEM) or the sense strand oligonucleotide of ACK siRNA (0.8 nmol/L) was complexed with Cellfectin. siRNA:Cellfectin complexes were added to the serum-free medium and incubated for 3 hours. Cells were then replenished with medium containing 10% FCS and incubated for another 21 hours or as indicated elsewhere. Cells were collected and counted using a hemocytometer; alternatively, cell lysates were prepared for Western blotting. Western blotting was done using ACK-1 antibodies. […]
After 24 hours of transfection, cells were collected and lysed with Laemmli SDS sample buffer. Proteins were separated by SDS-PAGE and the level of ACK-1 protein was determined by Western blotting using antibodies against ACK-1. […]

[4] = system: parental NIH 3T3 cells; assay: Growth of parental NIH 3T3 cells after siRNA transfection (cell counting); type: cell-based; conditions: FIG. 2D; counted every 24 hours
Description: as §2
(§3) After transfection with siRNA at different concentrations (in nmol/L), v-Ha-Ras transformed and parental NIH 3T3 cells were trypsinized and collected every 24 hours. Cell numbers were counted in triplicate.

[5] = system: v-Ha-Ras-transformed NIH 3T3 cells; assay: Growth of v-Ha-Ras-transformed cells after siRNA transfection (cell counting); type: cell-based; conditions: FIG. 2C; counted every 24 hours
Description: as §2, §3

[6] = system: v-Ha-Ras-transformed cells; assay: Cell cycle analysis of v-Ha-Ras-transformed cells by flow cytometry; type: cell-based; conditions: data not shown
Description: as §1

Molecule | inhibition of kinase activity of ACK (MBP phosphorylation) [1] | induction of apoptosis (apoptosis markers) [2] | level of ACK-1 at 0.8 nmol/L siRNA ([3]; 0.8 nmol/L, v-Ha-Ras-transformed and parental NIH 3T3 cells) | expression of ACK-1 ([3]; siRNA 0.16, 0.4 or 0.8 nmol/L, 24 hours, FIGS. 2A and B) | growth of parental NIH 3T3 cells after transfection [4] | growth of v-Ha-Ras-transformed cells after transfection [5] | cell cycle arrest [6]
O=c1c(O)c(-c2ccc(O)c(O)c2)oc2cc(O)cc(O)c12 [quercetin] | very weak activity | – | – | – | – | – | –
ACK-1 siRNA: annealed 21-nt pair 5′-CAUUACCCGCCUAUCUCAUdTdT-3′ / 5′-AUGAGAUAGGCGGGUAAUGdTdT-3′ corresponding to the 5′ noncoding of ACK-1 cDNA (chain 1 CAUUACCCGCCUAUCUCAUTT; chain 2 AUGAGAUAGGCGGGUAAUGTT; sugars from the 5' end r19 d2, backbone not given here) | – | induced apoptosis | reduced the level of ACK-1 significantly | reduced the expression of ACK-1 in a dose-dependent manner | did not affect the growth of parental NIH 3T3 cells | inhibited the growth of v-Ha-Ras-transformed cells in a dose dependent manner | did not block v-Ha-Ras-transformed cells at any particular stage of the cell cycle
O=c1c(-c2ccc(O)cc2)coc2cc(O)cc(O)c12 [genistein] | very weak activity | – | – | – | – | – | –
